Measured values from patent US5525626A (priority 1989, dated 1996).

Tests used:
Test in all cases: 3H-thymidine assay
Format in all cases: cell-based
[1] = system: Tp 483 MG glioblastoma cells
[2] = system: A-375 melanoma cells; details: Homo sapiens, A-375
[3] = system: MCF-7 breast cancer cells; details: Homo sapiens, MCF7
How it was run: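 MCF-7 cells were plated at 10^4 cells per well in 24-well plates and, once roughly half-confluent after approximately 48 hours, exposed to compound-containing medium. Growth inhibition was assessed from 3H-thymidine insertion relative to untreated controls: cultures were washed twice in ice-cold PBS, acid-insoluble label was precipitated with 5% trichloroacetic acid (one hour, 4° C), dissolved in 0.3M NaOH and counted. The concentration giving 50% inhibition of insertion was determined.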

[4] = system: K-562 leukemic cells; details: Homo sapiens, K562
How it was run: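 K562 human leukemic cells were inoculated into 24-well plates (10^4 cells/well) and allowed roughly 48 hours to reach half-confluence, after which the medium was swapped for one containing the test agent. Cultures were washed twice in cold PBS, acid-precipitable 3H-radioactivity was fixed with 5% trichloroacetic acid at 4° C for one hour, solubilized in 0.3M NaOH and counted; inhibition was derived relative to untreated cells.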

[5] = system: CAKI-1 cells; details: Homo sapiens, CAKI-1
How it was run: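 Antiproliferative activity against CAKI-1 cells was measured by 3H-thymidine incorporation. After washing in PBS, precipitated radioactivity was solubilized in 0.3M NaOH and counted. Incorporation in substance-treated cells was compared with untreated controls to assess growth inhibition, and the substance concentration giving 50% inhibition of 3H-thymidine insertion was found.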

[6] = system: At T 20; details: Mus musculus, AtT20
How it was run: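 In this antiproliferative test, AtT20 cells were plated at 10^4 per well in 24-well plates and, once roughly half-confluent after approximately 48 hours, switched to medium containing compound. After two ice-cold PBS washes, incorporated label was precipitated with 5% trichloroacetic acid (one hour, 4° C), dissolved in 0.3M NaOH and measured. Thymidine insertion was compared with untreated controls to estimate growth inhibition.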

[7] = system: Tp 242 MG glioblastoma cells; details: Homo sapiens
[8] = system: Daudi leukemic cells; details: Homo sapiens
[9] = system: Tp 410 N neuroblastoma cells; details: Homo sapiens, Neuroblastoma cell
[10] = system: Z-R-75-1 breast cancer cells; details: Homo sapiens, ZR-75-1
[11] = 1 μM/ml, read-out: 3H-thymidine insertion (%) of control
[12] = 2 μM/ml, read-out: 3H-thymidine insertion (%) of control
[13] = 4 μM/ml, read-out: 3H-thymidine insertion (%) of control
[14] = 8 μM/ml, read-out: 3H-thymidine insertion (%) of control
[15] = 16 μM/ml, read-out: 3H-thymidine insertion (%) of control
[16] = 25 μM/ml, read-out: 3H-thymidine insertion (%) of control
[17] = 50 μM/ml, read-out: 3H-thymidine insertion (%) of control
[18] = 100 μM/ml, read-out: 3H-thymidine insertion (%) of control
[19] = 250 μM/ml, read-out: 3H-thymidine insertion (%) of control
[20] = 500 μM/ml, read-out: 3H-thymidine insertion (%) of control
[21] = Table 4, read-out: active substance concentration at which 3H-thymidine insertion was 50% inhibited
[22] = 1 μM/ml, read-out: 3H-thymidine tracer (%) of control
[23] = 2 μM/ml, read-out: 3H-thymidine tracer (%) of control
[24] = 4 μM/ml, read-out: 3H-thymidine tracer (%) of control
[25] = 8 μM/ml, read-out: 3H-thymidine tracer (%) of control
[26] = 25 μM/ml, read-out: 3H-thymidine tracer (%) of control
[27] = 50 μM/ml, read-out: 3H-thymidine tracer (%) of control
[28] = 100 μM/ml, read-out: 3H-thymidine tracer (%) of control
[29] = 250 μM/ml, read-out: 3H-thymidine tracer (%) of control
[30] = 500 μM/ml, read-out: 3H-thymidine tracer (%) of control
[31] = Table 4, *: maximum usable dosage, no 50% inhibition, read-out: active substance concentration at which 3H-thymidine insertion was 50% inhibited
[32] = 16 μM/ml, read-out: 3H-thymidine tracer (%) of control

With `COc1cc2ccc(=O)oc2cc1O` [Scopoletin, 6-methoxy-7-hydroxy-1,2-benzopyrone] the activity at 1 µM [1, 11] was 100%, the activity at 2 µM [1, 12] was 95% and the activity at 4 µM [1, 13] was 89%. The activity at 8 µM [1, 14] was 86%, the activity at 16 µM [1, 15] was 78% and the activity at 25 µM [1, 16] was 72%. For the same compound, the activity at 50 µM [1, 17] was 67%, the activity at 100 µM [1, 18] was 63% and the activity at 250 µM [1, 19] was 54%. For the same compound, the activity at 500 µM [1, 20] was 50%, the IC50 [1, 21] was 500 µM and the activity at 1 µM [2, 22] was 99%. The activity at 2 µM [2, 23] was 96%, the activity at 4 µM [2, 24] was 90% and the activity at 8 µM [2, 25] was 89%. It also gave an activity at 25 µM [2, 26] of 87%, an activity at 50 µM [2, 27] of 78% and an activity at 100 µM [2, 28] of 75%. For the same compound, the activity at 250 µM [2, 29] was 75%, the activity at 500 µM [2, 30] was 70% and the IC50 [2, 31] was > 500 µM. For the same compound, the activity at 1 µM [3, 22] was 100%, the activity at 2 µM [3, 23] was 97% and the activity at 4 µM [3, 24] was 94%. For the same compound, the activity at 8 µM [3, 25] was 86%, the activity at 16 µM [3, 32] was 81% and the activity at 25 µM [3, 26] was 76%. For the same compound, the activity at 50 µM [3, 27] was 73%, the activity at 100 µM [3, 28] was 69% and the activity at 250 µM [3, 29] was 62%. The activity at 500 µM [3, 30] was 54%, the IC50 [3, 31] was > 500 µM and the activity at 1 µM [4, 22] was 100%. For the same compound, the activity at 2 µM [4, 23] was 97%, the activity at 4 µM [4, 24] was 90% and the activity at 8 µM [4, 25] was 85%. For the same compound, the activity at 16 µM [4, 32] was 82%, the activity at 25 µM [4, 26] was 71% and the activity at 50 µM [4, 27] was 66%. It also gave an activity at 100 µM [4, 28] of 52%, an activity at 250 µM [4, 29] of 47% and an activity at 500 µM [4, 30] of 44%. For the same compound, the IC50 [4, 21] was 175 µM, the activity at 1 µM [5, 22] was 100% and the activity at 2 µM [5, 23] was 98%. It also gave an activity at 4 µM [5, 24] of 87%, an activity at 8 µM [5, 25] of 81% and an activity at 16 µM [5, 32] of 80%. The activity at 25 µM [5, 26] was 73%, the activity at 50 µM [5, 27] was 69% and the activity at 100 µM [5, 28] was 67%. For the same compound, the activity at 150 µM ([5]; 150 μM/ml, read-out: 3H-thymidine tracer (%) of control) was 62%, the activity at 500 µM [5, 30] was 55% and the IC50 [5, 31] was > 500 µM. The activity at 1 µM [6, 22] was 98%, the activity at 2 µM [6, 23] was 94% and the activity at 4 µM [6, 24] was 89%. The activity at 8 µM [6, 25] was 84%, the activity at 16 µM [6, 32] was 76% and the activity at 25 µM [6, 26] was 68%. For the same compound, the activity at 50 µM [6, 27] was 62%, the activity at 100 µM [6, 28] was 57% and the activity at 250 µM [6, 29] was 49%. For the same compound, the activity at 500 µM [6, 30] was 43%, the IC50 [6, 21] was 250 µM and the activity at 1 µM [7, 11] was 99%. For the same compound, the activity at 2 µM [7, 12] was 93%, the activity at 4 µM [7, 13] was 85% and the activity at 8 µM [7, 14] was 87%. It also gave an activity at 16 µM [7, 15] of 84%, an activity at 25 µM [7, 16] of 79% and an activity at 50 µM [7, 17] of 74%. It also gave an activity at 100 µM [7, 18] of 61%, an activity at 250 µM [7, 19] of 52% and an activity at 500 µM [7, 20] of 48%. For the same compound, the IC50 [7, 21] was 500 µM, the activity at 1 µM [8, 22] was 96% and the activity at 2 µM [8, 23] was 94%. It also gave an activity at 4 µM [8, 24] of 80%, an activity at 8 µM [8, 25] of 79% and an activity at 16 µM [8, 32] of 71%. For the same compound, the activity at 25 µM [8, 26] was 64%, the activity at 50 µM [8, 27] was 58% and the activity at 100 µM [8, 28] was 53%. For the same compound, the activity at 250 µM [8, 29] was 49%, the activity at 500 µM [8, 30] was 41% and the IC50 [8, 21] was 250 µM. For the same compound, the activity at 1 µM [9, 11] was 100%, the activity at 2 µM [9, 12] was 98% and the activity at 4 µM [9, 13] was 95%. For the same compound, the activity at 8 µM [9, 14] was 87%, the activity at 16 µM [9, 15] was 82% and the activity at 25 µM [9, 16] was 74%. For the same compound, the activity at 50 µM [9, 17] was 71%, the activity at 100 µM [9, 18] was 65% and the activity at 250 µM [9, 19] was 62%. The activity at 500 µM [9, 20] was 54%, the IC50 [9, 21] was 500 µM and the activity at 1 µM [10, 22] was 98%. The activity at 2 µM [10, 23] was 96%, the activity at 4 µM [10, 24] was 91% and the activity at 8 µM [10, 25] was 83%. It also gave an activity at 16 µM [10, 32] of 79%, an activity at 25 µM [10, 26] of 72% and an activity at 50 µM [10, 27] of 64%. The activity at 100 µM [10, 28] was 57%, the activity at 250 µM [10, 29] was 55% and the activity at 500 µM [10, 30] was 50%. The IC50 [10, 31] was > 500 µM.
